From the supplement of paper PMC10627819

What was measured:
[1] = system: B. subtilis 168; assay: fitness (endpoint OD595 vs no drug) (fraction); higher = more growth
Method in brief: (§1)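 Fitness was defined as the optical density at the transition into stationary phase relative to the robust mean of no-drug control wells. Values were capped at 1. Cultures were started at OD595 0.01 in 384-well plates (30 µl, or 55 µl for S. pneumoniae) in TSB, LB Lennox or CY at 37 °C. OD595 was recorded every 30 min over 14 h, with the first reading subtracted as background.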

[2] = system: B. subtilis 168; assay: Bliss interaction score (quartile over a dose matrix) (fitness difference); higher = more antagonism (negative = synergy)
Method in brief: (§2)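 Combination data were used to infer fitness under each single drug. Fitness is the OD595 at entry into stationary phase divided by the robust mean of the plate's no-drug wells, with a cap of 1. The Bliss score is the observed minus the expected product fitness, summarised by quartiles over technical, biological and donor/recipient replicates.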

[3] = system: S. aureus DSM 20231; assay: as above
Method in brief: as §2

[4] = system: S. aureus Newman; assay: as above
Method in brief: as §2

[5] = system: S. pneumoniae D39V; assay: as above
Method in brief: as §2

[6] = system: S. pneumoniae D39V; assay: fitness (endpoint OD595 vs no drug) (fraction); higher = more growth
Method in brief: as §1
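Wherever Bliss interaction score (quartile over a dose matrix) is given: first quartile when negative (synergy) and third quartile when positive (antagonism).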

CO/N=C(\C(=O)N[C@@H]1C(=O)N2C(C(=O)O)=C(COC(N)=O)CS[C@H]12)c1ccco1 [Cefuroxime] + COc1cc(Cc2cnc(N)nc2N)cc(OC)c1OC [Trimethoprim]
fitness, [1], one replicate
Conditions | partner 0.1 µg/mL | partner 0.125 µg/mL | partner 0.2 µg/mL | partner 0.25 µg/mL | partner 0.4 µg/mL | partner 1 µg/mL | partner 2 µg/mL
first compound 0.04875 µg/mL | – | 0.392 | – | 0.382 | – | 0.37 | 0.375
first compound 0.0975 µg/mL | – | 0.443 | – | 0.46 | – | 0.315 | 0.247
first compound 0.195 µg/mL | 0.325 | – | 0.259 | – | 0.115 | 0.279 | 0.147
first compound 0.39 µg/mL | 0.162 | 0.227 | 0.262 | – | 0.207 | – | –
first compound 0.78 µg/mL | 0.237 | 0.155 | 0.221 | – | 0.17 | – | –

fitness, [1]
Conditions | first compound 0.04875 µg/mL | first compound 0.0975 µg/mL | first compound 0.195 µg/mL | first compound 0.39 µg/mL | first compound 0.78 µg/mL | first compound 1.562 µg/mL | first compound 3.125 µg/mL | first compound 6.25 µg/mL
partner 0.125 µg/mL | – | – | 0.289 | – | – | – | – | –
partner 0.25 µg/mL | – | – | 0.315 | 0.187 | 0.178 | – | – | –
partner 0.5 µg/mL | 0.397 | 0.407 | 0.29 | 0.19 | 0.168 | 0.286 | 0.26 | 0.255

Conditions | Bliss interaction score
[2] | 0.098
[3] | -0.188
[4] | -0.438
[5] | -0.0241

C[C@H]1c2cccc(O)c2C(=O)C2=C(O)[C@]3(O)C(=O)C(C(N)=O)=C(O)[C@@H](N(C)C)[C@@H]3[C@@H](O)[C@@H]21 [Doxycycline] + Cn1nnc(-c2ccc(-c3ccc(N4C[C@H](CO)OC4=O)cc3F)cn2)n1 [Tedizolid]
fitness, [6], one replicate
Conditions | first compound 0.003875 µg/mL | first compound 0.00775 µg/mL | first compound 0.031 µg/mL | first compound 0.062 µg/mL
partner 0.125 µg/mL | 0.847 | 0.848 | – | –
partner 0.25 µg/mL | 0.765 | 0.759 | 0.709 | 0.56
partner 0.5 µg/mL | 0.411 | 0.438 | 0.301 | 0.203

fitness, [6]
Conditions | partner 0.03125 µg/mL | partner 0.0625 µg/mL | partner 0.125 µg/mL | partner 0.25 µg/mL | partner 0.5 µg/mL
first compound 0.0155 µg/mL | 0.91 | 0.913 | 0.832 | 0.801 | 0.456
first compound 0.031 µg/mL | 0.957 | 0.9 | 0.768 | – | –
first compound 0.062 µg/mL | 0.92 | 0.905 | 0.826 | – | –

Conditions | Bliss interaction score
[2] | -0.0653
[3] | -0.0283
[4] | -0.0152
[5] | 0.055

C[C@H]1c2cccc(O)c2C(=O)C2=C(O)[C@]3(O)C(=O)C(C(N)=O)=C(O)[C@@H](N(C)C)[C@@H]3[C@@H](O)[C@@H]21 [Doxycycline] + O=C1CN(/N=C/c2ccc([N+](=O)[O-])o2)C(=O)N1 [Nitrofurantoin]
fitness, [6], one replicate
Conditions | first compound 0.003875 µg/mL | first compound 0.00775 µg/mL | first compound 0.0155 µg/mL | first compound 0.031 µg/mL | first compound 0.062 µg/mL
partner 2 µg/mL | ≥ 1 | 0.943 | – | 0.77 | 0.68
partner 4 µg/mL | 0.993 | 0.953 | – | 0.809 | 0.681
partner 5.14 µg/mL | – | – | 0.875 | 0.894 | 0.828
partner 8 µg/mL | 0.766 | 0.824 | – | 0.8 | 0.741

fitness, [6]
Conditions | partner 1.285 µg/mL | partner 2 µg/mL | partner 2.57 µg/mL | partner 4 µg/mL | partner 8 µg/mL
first compound 0.0155 µg/mL | 0.899 | 0.9 | 0.944 | 0.898 | 0.877
first compound 0.031 µg/mL | 0.896 | – | 0.92 | – | –
first compound 0.062 µg/mL | 0.837 | – | 0.869 | – | –

Conditions | Bliss interaction score
[2] | 0.0854
[3] | -0.0256
[4] | -0.0329
[5] | 0.0703

C[C@@H]1O[C@@H]1P(=O)(O)O [Fosfomycin] + CO[C@H]1/C=C/O[C@@]2(C)Oc3c(C)c(O)c4c(O)c(c(/C=N/N5CCN(C)CC5)c(O)c4c3C2=O)NC(=O)/C(C)=C\C=C\[C@H](C)[C@H](O)[C@@H](C)[C@@H](O)[C@@H](C)[C@H](OC(C)=O)[C@@H]1C [Rifampicin]
fitness, [6]
Conditions | first compound 1.25 µg/mL | first compound 2.5 µg/mL | first compound 5 µg/mL
partner 0.025 µg/mL | 0.987 | 0.969 | 0.806
partner 0.05 µg/mL | 0.986 | – | –
partner 0.1 µg/mL | – | – | 0.318

[6], partner 0.2 µg/mL, one replicate
Conditions | fitness
first compound 1.25 µg/mL | 0
first compound 2.5 µg/mL | 0
first compound 5 µg/mL | 0

Conditions | Bliss interaction score
[2] | -0.0436
[3] | 0.036
[4] | 0.0181
[5] | 0.0822

C[C@@H]1O[C@@H]1P(=O)(O)O [Fosfomycin] + C[C@@H](O)[C@H]1C(=O)N2C(C(=O)O)=C(SCCNC=N)C[C@H]12 [Imipenem]
fitness, [6]
Conditions | partner 0.005 µg/mL | partner 0.0065 µg/mL | partner 0.01 µg/mL | partner 0.013 µg/mL | partner 0.02 µg/mL | partner 0.026 µg/mL
first compound 1.25 µg/mL | 0.965 | 0.922 | 0.944 | 0.925 | 0.92 | 0.901
first compound 2.5 µg/mL | 0.911 | 0.87 | 0.887 | 0.881 | 0.911 | 0.814
first compound 5 µg/mL | 0.797 | 0.608 | 0.786 | 0.726 | 0.747 | 0.74

Conditions | Bliss interaction score
[2] | 0.0674
[3] | -0.0911
[4] | 0.0199
[5] | 0.0339

C[C@@H]1O[C@@H]1P(=O)(O)O [Fosfomycin] + Clc1ccc(COC(Cn2ccnc2)c2ccc(Cl)cc2Cl)c(Cl)c1 [Miconazole]
fitness, [6]
Conditions | partner 1.073 µg/mL | partner 1.25 µg/mL | partner 2.145 µg/mL | partner 2.5 µg/mL | partner 4.29 µg/mL | partner 5 µg/mL
first compound 1.25 µg/mL | 0.988 | 0.946 | 0.967 | 0.946 | 0.879 | 0.968
first compound 2.5 µg/mL | 0.926 | 0.905 | 0.879 | 0.933 | 0.789 | 0.929
first compound 5 µg/mL | 0.758 | 0.769 | 0.7 | 0.753 | 0.678 | 0.776

Conditions | Bliss interaction score
[2] | -0.0714
[3] | 0.0796
[4] | 0.103
[5] | 0.0499

C[C@@H]1O[C@@H]1P(=O)(O)O [Fosfomycin] + O=C1CN(/N=C/c2ccc([N+](=O)[O-])o2)C(=O)N1 [Nitrofurantoin]
fitness, [6]
Conditions | partner 1.285 µg/mL | partner 2 µg/mL | partner 2.57 µg/mL | partner 4 µg/mL | partner 8 µg/mL
first compound 1.25 µg/mL | 0.96 | 0.91 | 0.966 | 0.871 | –
first compound 2.5 µg/mL | 0.936 | 0.879 | 0.964 | 0.887 | –
first compound 5 µg/mL | 0.851 | 0.778 | 0.858 | 0.77 | 0.627

[6], partner 5.14 µg/mL, one replicate
Conditions | fitness
first compound 1.25 µg/mL | 0.923
first compound 2.5 µg/mL | 0.898
first compound 5 µg/mL | 0.866

Conditions | Bliss interaction score
[2] | -0.0694
[3] | -0.0181
[4] | 0.0702
[5] | 0.122

Cc1ncc([N+](=O)[O-])n1CCO [Metronidazole] + CO[C@H]1/C=C/O[C@@]2(C)Oc3c(C)c(O)c4c(O)c(c(/C=N/N5CCN(C)CC5)c(O)c4c3C2=O)NC(=O)/C(C)=C\C=C\[C@H](C)[C@H](O)[C@@H](C)[C@@H](O)[C@@H](C)[C@H](OC(C)=O)[C@@H]1C [Rifampicin]
fitness, [6]
Conditions | first compound 1.073 µg/mL | first compound 1.25 µg/mL | first compound 2.145 µg/mL | first compound 2.5 µg/mL | first compound 4.29 µg/mL | first compound 5 µg/mL
partner 0.05 µg/mL | 0.881 | 0.81 | 0.907 | 0.83 | 0.84 | 0.839
partner 0.1 µg/mL | 0.577 | – | 0.617 | – | 0.677 | –
partner 0.2 µg/mL | 0.302 | – | 0.35 | – | – | –

fitness, [6], one replicate
Conditions | first compound 1.25 µg/mL | first compound 2.5 µg/mL | first compound 5 µg/mL
partner 0.025 µg/mL | 0.897 | 0.907 | 0.892
partner 0.2 µg/mL | 0 | 0 | 0

Conditions | Bliss interaction score
[2] | 0.0335
[3] | -0.0591
[4] | 0.0408
[5] | 0.104

Cc1ncc([N+](=O)[O-])n1CCO [Metronidazole] + O=C1CN(/N=C/c2ccc([N+](=O)[O-])o2)C(=O)N1 [Nitrofurantoin]
fitness, [6]
Conditions | first compound 1.073 µg/mL | first compound 1.25 µg/mL | first compound 2.145 µg/mL | first compound 2.5 µg/mL | first compound 4.29 µg/mL | first compound 5 µg/mL
partner 1.285 µg/mL | – | 0.954 | – | 0.983 | – | 0.948
partner 2 µg/mL | 0.93 | – | 0.945 | – | 0.89 | –
partner 2.57 µg/mL | – | 0.95 | – | 0.948 | – | 0.965
partner 4 µg/mL | 0.929 | – | 0.919 | – | 0.902 | –
partner 8 µg/mL | 0.774 | – | 0.805 | – | 0.751 | –

[6], partner 5.14 µg/mL, one replicate
Conditions | fitness
first compound 1.25 µg/mL | 0.936
first compound 2.5 µg/mL | 0.973
first compound 5 µg/mL | 0.989

Conditions | Bliss interaction score
[2] | 0.0755
[3] | 0.0482
[4] | -0.0503
[5] | 0.0483

COc1ccc(C[C@H](N)C(=O)N[C@H]2[C@@H](O)[C@H](n3cnc4c(N(C)C)ncnc43)O[C@@H]2CO)cc1 [Puromycin] + CO[C@H]1/C=C/O[C@@]2(C)Oc3c(C)c(O)c4c(O)c(c(/C=N/N5CCN(C)CC5)c(O)c4c3C2=O)NC(=O)/C(C)=C\C=C\[C@H](C)[C@H](O)[C@@H](C)[C@@H](O)[C@@H](C)[C@H](OC(C)=O)[C@@H]1C [Rifampicin]
[6], partner 0.025 µg/mL, one replicate
Conditions | fitness
first compound 1 µg/mL | 0.914
first compound 2 µg/mL | 0.856
first compound 4 µg/mL | 0.691

fitness, [6]
Conditions | first compound 1 µg/mL | first compound 2 µg/mL | first compound 4 µg/mL
partner 0.05 µg/mL | 0.747 | 0.753 | –
partner 0.2 µg/mL | 0.135 | 0.0783 | 0.0597

Conditions | Bliss interaction score
[2] | 0.0301
[3] | 0.0391
[4] | 0.0233
[5] | -0.0708
